Data from PubChem BioAssay (NCI).
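Five concentrations, 48 hours, 96-well plates. Here, GI50 denotes the concentration required for 50% inhibition of growth. TGI: total growth inhibition.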

Experiments:
Assay in all cases: NCI-60 cell line screen, 48 h
LOX IMVI melanoma = tested on: LOX IMVI melanoma
TK-10 renal = tested on: TK-10 renal
SK-MEL-5 melanoma = tested on: SK-MEL-5 melanoma
HCT-15 colon = tested on: HCT-15 colon
COLO 205 colon = tested on: COLO 205 colon
MOLT-4 leukemia = tested on: MOLT-4 leukemia
NCI-H23 lung = tested on: NCI-H23 lung
NCI-H522 lung = tested on: NCI-H522 lung
SF-539 CNS = tested on: SF-539 CNS
BT-549 breast = tested on: BT-549 breast

SMILES: O=CCCCCCOCc1ccccc1
- TGI (LOX IMVI melanoma): 34.9 µM
- TGI (TK-10 renal): > 100 µM
- TGI (SK-MEL-5 melanoma): > 54.4 µM
- TGI (HCT-15 colon): > 100 µM
- TGI (COLO 205 colon): > 100 µM
- TGI (MOLT-4 leukemia): 37.4 µM
- TGI (NCI-H23 lung): > 82.6 µM
- TGI (NCI-H522 lung): > 100 µM
- TGI (SF-539 CNS): > 100 µM
- TGI (BT-549 breast): > 100 µM

SMILES: CCc1nc(N)c2nc(-c3cccs3)oc2n1
- TGI (LOX IMVI melanoma): > 100 µM
- TGI (TK-10 renal): > 100 µM
- TGI (SK-MEL-5 melanoma): > 100 µM
- TGI (HCT-15 colon): > 100 µM
- TGI (COLO 205 colon): > 100 µM
- TGI (MOLT-4 leukemia): > 100 µM
- TGI (NCI-H23 lung): > 100 µM
- TGI (NCI-H522 lung): > 100 µM
- TGI (SF-539 CNS): > 100 µM
- TGI (BT-549 breast): > 100 µM

SMILES: CCOC(=O)NC(=S)N(CC(=O)c1cc(OC)c(OC)c(OC)c1)c1ccc(Cl)cc1
- GI50 (LOX IMVI melanoma): 23.7 µM
- TGI (LOX IMVI melanoma): > 100 µM
- GI50 (TK-10 renal): 36.9 µM
- TGI (TK-10 renal): > 100 µM
- GI50 (SK-MEL-5 melanoma): 43 µM
- TGI (SK-MEL-5 melanoma): > 100 µM
- GI50 (HCT-15 colon): 62.6 µM
- TGI (HCT-15 colon): > 100 µM
- GI50 (COLO 205 colon): > 100 µM
- TGI (COLO 205 colon): > 100 µM
- GI50 (MOLT-4 leukemia): 52.3 µM
- TGI (MOLT-4 leukemia): > 100 µM
- GI50 (NCI-H23 lung): > 100 µM
- TGI (NCI-H23 lung): > 100 µM
- GI50 (NCI-H522 lung): 27.9 µM
- TGI (NCI-H522 lung): > 100 µM
- GI50 (SF-539 CNS): > 100 µM
- TGI (SF-539 CNS): > 100 µM
- GI50 (BT-549 breast): 41.6 µM
- TGI (BT-549 breast): > 100 µM

SMILES: N[C@@H](CCC(=O)NC(Cc1ccccc1)C(=O)NCP(=O)(O)O)C(=O)O (stereo not given in full)
- TGI (LOX IMVI melanoma): > 100 µM
- TGI (TK-10 renal): > 100 µM
- TGI (SK-MEL-5 melanoma): > 100 µM
- TGI (HCT-15 colon): > 100 µM
- TGI (COLO 205 colon): > 100 µM
- TGI (MOLT-4 leukemia): > 100 µM
- TGI (NCI-H23 lung): > 100 µM
- TGI (NCI-H522 lung): > 100 µM
- TGI (SF-539 CNS): > 100 µM
- TGI (BT-549 breast): > 100 µM

SMILES: CC(=O)CC1(CBr)Nc2ccc([N+](=O)[O-])cc2NC1=O (stereo not given)
- TGI (LOX IMVI melanoma): > 100 µM
- TGI (TK-10 renal): > 100 µM
- TGI (SK-MEL-5 melanoma): > 100 µM
- TGI (HCT-15 colon): > 100 µM
- TGI (COLO 205 colon): > 100 µM
- TGI (MOLT-4 leukemia): > 100 µM
- TGI (NCI-H23 lung): > 100 µM
- TGI (NCI-H522 lung): 41.6 µM
- TGI (SF-539 CNS): > 100 µM
- TGI (BT-549 breast): > 100 µM

SMILES: O=C1NC(O)c2cc3ccccc3cc2O1 (stereo not given)
- TGI (LOX IMVI melanoma): 95.3 µM
- TGI (TK-10 renal): > 100 µM
- TGI (SK-MEL-5 melanoma): > 100 µM
- TGI (HCT-15 colon): > 100 µM
- TGI (COLO 205 colon): > 100 µM
- TGI (MOLT-4 leukemia): > 100 µM
- TGI (NCI-H23 lung): > 100 µM
- TGI (NCI-H522 lung): > 100 µM
- TGI (SF-539 CNS): 89.9 µM
- TGI (BT-549 breast): 82.1 µM

SMILES: COP(=O)(OC)OCN(C)CC/C=C(\C)CC/C=C(\C)CCC=C(C)C
- TGI (LOX IMVI melanoma): 29.3 µM
- TGI (TK-10 renal): 21.9 µM
- TGI (SK-MEL-5 melanoma): 25.3 µM
- TGI (HCT-15 colon): 30.3 µM
- TGI (COLO 205 colon): 34 µM
- TGI (MOLT-4 leukemia): 28.9 µM
- TGI (NCI-H23 lung): 34.7 µM
- TGI (NCI-H522 lung): 26.1 µM
- TGI (SF-539 CNS): 30.3 µM
- TGI (BT-549 breast): 30 µM

SMILES: CC(C)(C)C(=O)Nc1c(C=O)ccc2[nH]cnc12
- TGI (LOX IMVI melanoma): > 100 µM
- TGI (TK-10 renal): > 100 µM
- TGI (SK-MEL-5 melanoma): > 100 µM
- TGI (HCT-15 colon): > 100 µM
- TGI (COLO 205 colon): > 100 µM
- TGI (MOLT-4 leukemia): 73.7 µM
- TGI (NCI-H23 lung): > 100 µM
- TGI (NCI-H522 lung): > 100 µM
- TGI (SF-539 CNS): > 100 µM
- TGI (BT-549 breast): > 100 µM

SMILES: N#Cc1nc(CCc2nc(C#N)c(N)o2)oc1N
- TGI (LOX IMVI melanoma): > 10 µM
- TGI (TK-10 renal): > 10 µM
- TGI (SK-MEL-5 melanoma): > 10 µM
- TGI (HCT-15 colon): > 10 µM
- TGI (COLO 205 colon): > 10 µM
- TGI (MOLT-4 leukemia): > 10 µM
- TGI (NCI-H23 lung): > 10 µM
- TGI (NCI-H522 lung): > 10 µM
- TGI (SF-539 CNS): > 10 µM
- TGI (BT-549 breast): > 10 µM

SMILES: Clc1ccc2c(NCCCCCCNc3ccnc4cc(Cl)ccc34)ccnc2c1
- TGI (LOX IMVI melanoma): 3.35 µM
- TGI (TK-10 renal): 18.2 µM
- TGI (SK-MEL-5 melanoma): 10.9 µM
- TGI (HCT-15 colon): 8.08 µM
- TGI (COLO 205 colon): 4.62 µM
- TGI (MOLT-4 leukemia): 8.09 µM
- TGI (NCI-H23 lung): 31.5 µM
- TGI (NCI-H522 lung): 3.19 µM
- TGI (SF-539 CNS): 3.6 µM
- TGI (BT-549 breast): 27.5 µM

SMILES: CCOC(=O)c1c(-c2ccc(OC)cc2)ccn1C
- TGI (LOX IMVI melanoma): > 10 µM
- TGI (TK-10 renal): > 10 µM
- TGI (SK-MEL-5 melanoma): > 10 µM
- TGI (HCT-15 colon): > 10 µM
- TGI (COLO 205 colon): > 10 µM
- TGI (MOLT-4 leukemia): > 10 µM
- TGI (NCI-H23 lung): > 10 µM
- TGI (NCI-H522 lung): > 10 µM
- TGI (SF-539 CNS): > 10 µM
- TGI (BT-549 breast): > 10 µM

SMILES: COc1cccc2c1C(=O)c1c(O)c3c(c(O)c1C2=O)C[C@@](O)(C(C)=O)CC3OC1CC(OC2CC(N)C(O)C(C)O2)C(O)C(C)O1 (stereo not given in full)
- TGI (LOX IMVI melanoma): > 100 µM
- TGI (TK-10 renal): > 100 µM
- TGI (SK-MEL-5 melanoma): > 100 µM
- TGI (HCT-15 colon): > 100 µM
- TGI (COLO 205 colon): > 100 µM
- TGI (MOLT-4 leukemia): 7.24 µM
- TGI (NCI-H23 lung): > 100 µM
- TGI (NCI-H522 lung): > 100 µM
- TGI (SF-539 CNS): > 76.8 µM
- TGI (BT-549 breast): > 100 µM

SMILES: CC(C)(C)C1CCC2c3c([nH]c4ccccc34)C3C(=O)N(c4ccc([N+](=O)[O-])cc4)C(=O)C3C2C1 (stereo not given)
- TGI (LOX IMVI melanoma): 20.8 µM
- TGI (TK-10 renal): 78.2 µM
- TGI (SK-MEL-5 melanoma): 25.6 µM
- TGI (HCT-15 colon): > 100 µM
- TGI (COLO 205 colon): 21.1 µM
- TGI (MOLT-4 leukemia): 56.8 µM
- TGI (NCI-H23 lung): 33.7 µM
- TGI (NCI-H522 lung): 40.8 µM
- TGI (SF-539 CNS): 42.7 µM
- TGI (BT-549 breast): 36.9 µM

SMILES: CCN1CC2(C)CCC(OC)C34C5CC6CCC(O)(C5C(=O)O6)C(C(O)C23)C14 (stereo not given)
- TGI (LOX IMVI melanoma): > 100 µM
- TGI (TK-10 renal): > 100 µM
- TGI (SK-MEL-5 melanoma): > 100 µM
- TGI (HCT-15 colon): > 100 µM
- TGI (COLO 205 colon): > 100 µM
- TGI (MOLT-4 leukemia): > 100 µM
- TGI (NCI-H23 lung): > 100 µM
- TGI (NCI-H522 lung): > 100 µM
- TGI (SF-539 CNS): > 100 µM
- TGI (BT-549 breast): > 100 µM

SMILES: O=S(=O)(Nc1nc2ccccc2nc1N1CCCCCC1)c1ccccc1
- TGI (LOX IMVI melanoma): > 100 µM
- TGI (TK-10 renal): 40 µM
- TGI (SK-MEL-5 melanoma): 29.5 µM
- TGI (HCT-15 colon): 45 µM
- TGI (COLO 205 colon): > 100 µM
- TGI (MOLT-4 leukemia): 44.2 µM
- TGI (NCI-H23 lung): 44.2 µM
- TGI (NCI-H522 lung): 57.1 µM
- TGI (SF-539 CNS): 95.7 µM
- TGI (BT-549 breast): 50.1 µM

SMILES: CC(Nc1ccc(Cl)cc1)c1ccncc1 (stereo not given)
- TGI (LOX IMVI melanoma): > 100 µM
- TGI (TK-10 renal): > 100 µM
- TGI (SK-MEL-5 melanoma): > 100 µM
- TGI (HCT-15 colon): > 100 µM
- TGI (COLO 205 colon): > 100 µM
- TGI (MOLT-4 leukemia): > 100 µM
- TGI (NCI-H23 lung): > 100 µM
- TGI (NCI-H522 lung): > 100 µM
- TGI (SF-539 CNS): > 100 µM
- TGI (BT-549 breast): > 100 µM

SMILES: ClC1=NN=C(c2c[nH]c3ccccc23)CC1NCc1ccccc1 (stereo not given)
- TGI (LOX IMVI melanoma): > 100 µM
- TGI (TK-10 renal): > 100 µM
- TGI (SK-MEL-5 melanoma): > 100 µM
- TGI (HCT-15 colon): > 100 µM
- TGI (COLO 205 colon): > 100 µM
- TGI (MOLT-4 leukemia): > 100 µM
- TGI (NCI-H23 lung): > 100 µM
- TGI (NCI-H522 lung): > 100 µM
- TGI (SF-539 CNS): > 100 µM
- TGI (BT-549 breast): > 100 µM

SMILES: CC(=O)NC1C(OCc2ccccc2)OC(CO)C(O)C1OC(C)C(=O)N[C@@H](C)C(=O)N[C@H](CCC(=O)NCCNCCNc1c2ccccc2nc2cccc([N+](=O)[O-])c12)C(N)=O (stereo not given in full)
- TGI (LOX IMVI melanoma): 0.534 µM
- TGI (TK-10 renal): 3.54 µM
- TGI (SK-MEL-5 melanoma): 0.0635 µM
- TGI (HCT-15 colon): 1.63 µM
- TGI (COLO 205 colon): 0.198 µM
- TGI (MOLT-4 leukemia): > 100 µM
- TGI (NCI-H23 lung): 0.0902 µM
- TGI (NCI-H522 lung): 0.0665 µM
- TGI (SF-539 CNS): 0.991 µM
- TGI (BT-549 breast): 0.221 µM
